Source: PubChem BioAssay (NCI)
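Each compound was tested at five concentrations against cells in 96-well plates for 48 hours. Here, GI50 denotes the concentration required for 50% inhibition of growth. TGI denotes the concentration required for complete inhibition of growth.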

Columns and labels:
Assay in all cases: DTP human tumour cell line panel, 48 h
HCT-116 colon = test system: HCT-116 colon
UACC-257 melanoma = test system: UACC-257 melanoma
OVCAR-8 ovarian = test system: OVCAR-8 ovarian
MDA-MB-231 breast = test system: MDA-MB-231 breast
LOX IMVI melanoma = test system: LOX IMVI melanoma
MALME-3M melanoma = test system: MALME-3M melanoma
MCF7 breast = test system: MCF7 breast
EKVX NSCLC = test system: EKVX NSCLC
SR leukemia = test system: SR leukemia
K-562 leukemia = test system: K-562 leukemia

SMILES	TGI (HCT-116 colon) [µM]	TGI (UACC-257 melanoma) [µM]	TGI (OVCAR-8 ovarian) [µM]	TGI (MDA-MB-231 breast) [µM]	TGI (LOX IMVI melanoma) [µM]	TGI (MALME-3M melanoma) [µM]	TGI (MCF7 breast) [µM]	TGI (EKVX NSCLC) [µM]	TGI (SR leukemia) [µM]	TGI (K-562 leukemia) [µM]	GI50 (HCT-116 colon) [µM]	GI50 (UACC-257 melanoma) [µM]	GI50 (OVCAR-8 ovarian) [µM]	GI50 (MDA-MB-231 breast) [µM]	GI50 (LOX IMVI melanoma) [µM]	GI50 (MALME-3M melanoma) [µM]	GI50 (MCF7 breast) [µM]	GI50 (EKVX NSCLC) [µM]	GI50 (SR leukemia) [µM]	GI50 (K-562 leukemia) [µM]
O=C(O)[C@H]1NC[C@@H]2ON=C(Br)[C@@H]21	> 100	> 100	> 100	> 100	> 100	> 100	> 100	> 100	> 100	> 100	–	–	–	–	–	–	–	–	–	–
CC(C(O)c1ccccc1)[N+](=O)[O-] (stereo not given)	> 100	31.7	35	59.2	6.02	48.4	40.1	> 100	9.82	59.1	–	–	–	–	–	–	–	–	–	–
CN1CCN(c2ccc3nc(-c4ccc5nc(-c6ccc(N(C)CCCl)cc6)[nH]c5c4)[nH]c3c2)CC1	14.4	3.34	1.53	22.3	0.218	0.41	0.56	–	12.5	1.16	–	–	–	–	–	–	–	–	–	–
Cc1cc2nc(NS(=O)(=O)c3cc(C)c(Cl)cc3S)[nH]c2cc1C	> 100	> 100	> 100	> 100	> 100	> 100	> 100	> 100	> 100	> 100	–	–	–	–	–	–	–	–	–	–
CCOC(=O)C1CCCC1S(=O)(=O)c1ccc(C)cc1 (stereo not given)	> 100	–	> 100	> 100	> 100	> 100	> 100	> 100	> 100	> 100	–	–	–	–	–	–	–	–	–	–
O=C(O)c1ccc(/C=N\N(CCO)C2=NCCN2)cc1	> 100	–	> 100	> 100	> 100	> 100	> 100	> 100	> 100	> 100	–	–	–	–	–	–	–	–	–	–
COc1cc(OC)c(NC2=NCCO2)cc1Cl	94.5	> 100	> 100	64.5	99.3	> 100	> 100	> 100	83.2	> 100	–	–	–	–	–	–	–	–	–	–
CN(c1ccccc1Cl)S(=O)(=O)c1ccccc1	> 100	> 100	> 100	> 100	> 100	> 100	> 100	> 100	> 100	> 100	–	–	–	–	–	–	–	–	–	–
O=C1CSC(c2c(O)ccc3ccccc23)N1n1c(=S)[nH]nc(/C=C/c2c(O)ccc3ccccc23)c1=O (stereo not given)	16.6	14.3	21.4	20.7	17.5	16.8	18.9	51.3	10.9	19.3	–	–	–	–	–	–	–	–	–	–
O=c1[nH]c2cc([N+](=O)[O-])c(N(CCO)CCO)c([N+](=O)[O-])c2[nH]1	87.5	59.3	> 100	> 100	> 100	> 100	> 100	54.4	> 100	> 100	–	–	–	–	–	–	–	–	–	–
O=C(O)C1C2CCC(C2)C1c1ccccc1 (stereo not given)	> 100	> 100	> 100	> 100	> 100	> 100	> 100	> 100	> 100	> 100	–	–	–	–	–	–	–	–	–	–
Nc1nc(SCc2ccccc2[N+](=O)[O-])c2[nH]cnc2n1	> 100	> 75.9	> 100	> 100	> 100	> 67.4	> 100	> 100	> 100	> 100	–	–	–	–	–	–	–	–	–	–
CCNC(=O)CCCCC(=O)c1c(C)[nH]c(/C=C2\N=C(c3ccc[nH]3)C=C2OC)c1C	23.6	26.1	7.73	4.32	3.65	5.74	4.51	31.7	32.8	> 100	2.33	6.41	2.96	2.04	1.76	2.32	1.84	11.2	1.65	3.23
Nc1ccc(S(=O)(=O)c2ccc(N=[N+]([O-])c3ccc(S(=O)(=O)c4ccc(N)cc4)cc3)cc2)cc1	> 100	> 100	> 100	> 78.1	> 100	> 100	> 100	> 100	> 100	> 100	–	–	–	–	–	–	–	–	–	–
C[N+](C)(N)Cc1csc(-c2ccc(Cl)cc2)n1	> 100	> 100	> 100	> 100	> 100	> 100	> 100	> 100	> 100	> 100	–	–	–	–	–	–	–	–	–	–
COC(=O)C1(Cc2ccc3c(c2)CCC3)Cc2cc3c(cc2C1=O)CCC3 (stereo not given)	> 46.4	> 46.4	> 46.4	> 46.4	> 46.4	> 46.4	> 46.4	> 46.4	33	> 46.4	–	–	–	–	–	–	–	–	–	–
COc1cc(C(=O)OC2CC(C)=CC[C@@]3(C)CC[C@](O)(C(C)C)C23)ccc1O (stereo not given in full)	33.1	29.6	36.6	30.5	30.6	34.3	28.9	34.6	84.1	38.3	–	–	–	–	–	–	–	–	–	–

SMILES	TGI (HCT-116 colon) [µM]	TGI (UACC-257 melanoma) [µM]	TGI (OVCAR-8 ovarian) [µM]	TGI (MDA-MB-231 breast) [µM]	TGI (LOX IMVI melanoma) [µM]	TGI (MALME-3M melanoma) [µM]	TGI (MCF7 breast) [µM]	TGI (EKVX NSCLC) [µM]	TGI (SR leukemia) [µM]	TGI (K-562 leukemia) [µM]	GI50 (HCT-116 colon) [µM]	GI50 (UACC-257 melanoma) [µM]	GI50 (OVCAR-8 ovarian) [µM]	GI50 (MDA-MB-231 breast) [µM]	GI50 (LOX IMVI melanoma) [µM]	GI50 (MALME-3M melanoma) [µM]	GI50 (MCF7 breast) [µM]	GI50 (EKVX NSCLC) [µM]	GI50 (SR leukemia) [µM]	GI50 (K-562 leukemia) [µM]
CC(C)(CO)NC(=O)c1cccc(C(=O)NC(C)(C)CO)c1Br	> 100	> 100	> 100	> 100	> 100	> 100	> 100	> 100	> 100	> 100	–	–	–	–	–	–	–	–	–	–
O=C(O)C1(CC(CCCN2CCCCC2)c2ccccc2)CCCC1 (stereo not given)	> 100	–	> 100	> 100	> 100	> 100	> 100	> 100	> 100	> 100	–	–	–	–	–	–	–	–	–	–
COc1cc(C2c3cc4c(cc3OC(N3CCOCC3)C2C)OCO4)cc(OC)c1OC (stereo not given)	12.7	> 59.7	59.2	37.3	> 53.3	> 100	> 77	> 100	> 100	> 54.3	–	–	–	–	–	–	–	–	–	–
CCOC(=O)c1[nH]n(-c2ccccc2)c(=O)c1C=NC(=S)C(N)=S	44.6	> 100	> 100	> 100	> 100	> 100	> 100	97.7	> 100	> 100	–	–	–	–	–	–	–	–	–	–
CNc1nc(=O)c(C#N)c(-c2ccc(C)cc2)s1	> 100	> 100	> 100	> 100	> 100	> 100	> 100	> 100	> 100	> 100	–	–	–	–	–	–	–	–	–	–
O=C(OCc1c(-c2ccccc2)nn(-c2ccccc2)c1COC(=O)Oc1ccccc1)Oc1ccccc1	> 100	> 100	> 100	> 100	> 100	> 100	> 100	> 100	> 100	> 100	–	–	–	–	–	–	–	–	–	–
COC(=O)C1=C2Nc3ccccc3C23CCN2C(O)C4(CC5CC67CCOC6CCN6CCC8(c9cccc(OC)c9N(C4)C58O)C67)C4OCCC4(C1)C23 (stereo not given)	> 100	> 100	61.3	61.3	> 100	> 100	> 100	> 100	> 100	> 100	–	–	–	–	–	–	–	–	–	–
CC(C)=CCC[C@@H](C)C1=C(O)C(Nc2ccccc2F)=C(C)C(=O)C1=O	47.6	> 100	> 100	> 100	> 100	41.1	> 90	> 100	> 100	> 100	–	–	–	–	–	–	–	–	–	–
COC(=O)C(Cc1ccccc1)NC(=O)C(CCCN=C(N)N)NC(=O)OCc1ccccc1 (stereo not given)	> 100	–	> 100	> 100	> 100	> 100	> 100	> 100	> 100	> 100	–	–	–	–	–	–	–	–	–	–
COc1ccc(CCNC(=S)/N=C\C2=C(O)c3ccccc3C2=O)cc1OC	> 100	> 100	> 100	> 100	> 100	> 100	> 100	> 100	> 100	> 100	–	–	–	–	–	–	–	–	–	–
CN(C)C(=O)CO/N=C1/C(c2c(O)[nH]c3ccccc23)=Nc2ccccc21	> 100	> 100	> 100	> 100	> 100	> 100	> 100	> 100	> 100	> 100	–	–	–	–	–	–	–	–	–	–
CCOC(=O)c1ccc2c(=O)n3c(C(=O)OCC)ccc3c(=O)n12	> 100	> 100	> 100	> 100	> 100	> 100	> 100	> 100	> 100	> 100	–	–	–	–	–	–	–	–	–	–
CC1=NN(c2cccc(Cl)c2)C2(C1)SCC(=O)N2c1nc2ccccc2s1 (stereo not given)	36.7	57.7	> 100	40.3	41.6	> 100	> 100	> 100	37.8	48.9	–	–	–	–	–	–	–	–	–	–
CC1(C)CC(=O)C2=C(C1)N(c1ccccc1)C1(O)C=CC(=O)C3=C(O)c4ccccc4C(=O)C321 (stereo not given)	> 100	> 100	> 100	> 100	56.3	66.8	> 100	> 100	56.4	> 100	–	–	–	–	–	–	–	–	–	–
Cn1c2cc(Cl)ccc2c2ccc3c(c21)C(=O)C=CC3=O	> 53.7	> 77.3	> 100	> 68.6	> 100	33.4	50.6	> 100	26.1	11.4	–	–	–	–	–	–	–	–	–	–
OC1NC2CC3NC(O)C(O)NC3CC2NC1O (stereo not given)	> 100	> 100	> 100	> 100	> 100	> 100	> 100	> 100	> 100	> 100	–	–	–	–	–	–	–	–	–	–
CS(=O)(=O)OC1CCN(C2(c3cccc(O)c3)CCCCC2)CC1	> 100	> 100	> 100	> 100	51.8	> 100	> 100	> 100	49.4	> 100	–	–	–	–	–	–	–	–	–	–
